Measurements published in patent publication US9308179B2, “Long circulating nanoparticles for sustained release of therapeutic agents” (BIND Therapeutics, Inc., priority 2008, dated 2016).
Like-named read-outs stand apart in the source and are kept apart here. Marks after values point to notes of the source that are not given here.

What was measured:
[1] = Acute dose range finding study in Sprague-Dawley rats; type: in vivo; conditions: 7 days
Procedure: Sixty Sprague-Dawley rats (30/sex) were assigned to 10 dose groups (3 rats/sex/group) and were administered a single dose of either docetaxel encapsulated in nanoparticles (5.7, 7.5, 10, 15 or 30 mg/kg body weight) or conventional docetaxel (5.7, 7.5, 10, 15 or 30 mg/kg body weight).

MX-1 breast tumors = assay: Tumor accumulation of docetaxel nanoparticles in MX-1 breast tumors; type: in vivo, mice; conditions: 10 mg/kg, 24 hours after injection, LC/MS/MS
Procedure: Mice were then injected with 10 mg/kg of the test article, then euthanized 24 hours later and the tumors were removed and analyzed for docetaxel content using LC/MS/MS. Results are depicted in FIG. 12.

[2] = 5 mg/kg, cited from earlier work
[3] = test system: human LNCaP prostate cancer cells; assay: Anti-tumor activity after repeated doses in human tumor xenograft model (LNCaP); type: in vivo, SCID mice; conditions: Q2D for four doses, eight day holiday, another four doses; FIG. 7
Procedure: Male severe combined immunodeficiency (SCID) mice were subcutaneously inoculated with human LNCaP prostate cancer cells. Three to four weeks after inoculation, the mice were assigned to different treatment groups such that the average tumor volume in each group was 250 mm^3. Subsequently, the mice were treated every other day (Q2D) for four doses, with an eight day holiday, followed by another four doses at the Q2D schedule.

[4] = Tumor docetaxel concentration after a single dose in human tumor xenograft model (LNCaP); type: in vivo, SCID mice; conditions: male, SCID, mouse
Procedure: Male severe combined immunodeficiency (SCID) mice were subcutaneously inoculated with human LNCaP prostate cancer cells. Three to four weeks after inoculation, the mice were assigned to different treatment groups such that the average tumor volume in each group was 300 mm^3. At this time, a single intravenous (IV) dose of 50 mg/kg docetaxel was administered as either docetaxel encapsulated in nanoparticles or conventional docetaxel. The test subjects were sacrificed 2 hour or 12 hour post-dose. The tumors from each group were excised and assayed for docetaxel using liquid chromatography-mass spectrometry (LC-MS).

[5] = Single dose pharmacokinetic study in Sprague-Dawley rats; type: in vivo; conditions: male, rat
Procedure: Six- to eight-week old male Sprague-Dawley rats were administered a single bolus dose (5 mg/kg of docetaxel) of docetaxel encapsulated in nanoparticles or conventional docetaxel via a tail vein. The dose groups consisted of six rats each. Blood was drawn at 0.083, 0.5, 1, 2, 3, 4, 6, and 24 hours post-dosing and processed to plasma. The concentration of total docetaxel in plasma was measured by a liquid chromatography-mass spectrometry (LC-MS) method following extraction with methyl tert-butyl ether (MTBE).

[6] = Pharmacokinetics of docetaxel nanoparticles in primates; type: in vivo, non human primates; design: Cmax/D / AUC/D: unit not given beside the values; conditions: for AUC / Cl / Vz / half-life / Cmax: 30 minute IV infusion; for half-life: in vivo
Procedure: 1 male and 1 female were used per dose group. The dosing day was 1 day and the formulations were administered by 30 minute IV infusion at 25 mg/m^2 docetaxel or 50 mg/m^2 docetaxel (animals were randomized and then dosed with 50 mg/m2 on day 29 and PK, hematology and clinical chemistry were measured for 21 days). At the end of the study, PK, hematology and clinical chemistry collected over a 21 day period were assessed. FIG. 12 depicts the results of male (M) and female (F) PNP.

[7] = Tissue distribution of radioactivity in rats after IV administration; type: in vivo, Sprague-Dawley rats
Procedure: Six- to eight-week old male Sprague-Dawley rats were administered a single bolus intravenous dose of one of the following: (1) docetaxel encapsulated in nanoparticles in which the ligand of the PLA-PEG-lys(urea)glu targeting polymer was ^14C-labeled, (2) docetaxel encapsulated in nanoparticles in which the encapsulated docetaxel was ^14C-labeled, (3) ^14C-labeled conventional docetaxel.
Blood was drawn at 1, 3, 6, 12, and 24 hours post-dosing and processed to plasma. Immediately following blood collection, the rats were euthanized by CO2 asphyxiation and tissues were immediately collected, blotted, weighed, and frozen on dry ice. Tissue samples were stored frozen (approximately −70° C.) until analysis for radioactivity by liquid scintillation (LS) counting.

[8] = plasma, 5 mg/kg single IV bolus

## CC(=O)O[C@@]12CO[C@@H]1C[C@H](O)[C@@]1(C)C(=O)[C@H](O)C3=C(C)[C@@H](OC(=O)[C@H](O)[C@@H](NC(=O)OC(C)(C)C)c4ccccc4)C[C@@](O)([C@@H](OC(=O)c4ccccc4)[C@H]21)C3(C)C [Conventional Docetaxel, docetaxel]
[1]; 5.7-30 mg/kg single dose
  survival to scheduled necropsy: All test subjects survived
[1]; female, Sprague-Dawley, rat, in vivo, 10 mg/kg
  piloerection, female rats affected: 1/9
[1]; male, Sprague-Dawley, rat, in vivo, 10 mg/kg
  piloerection, male rats affected: 5/9
MX-1 breast tumors
  percent of injected dose in the tumor: 3%
[2]
  AUC0-∞: 910 ng·h/mL
  CL: 91.7 mL/min/kg
  Cmax: 4,100 ng/mL
[2]; study duration was 6 hours
  t1/2: 0.8^b h
[2]; tmax equals the first sampling time
  tmax: 2 min
[3]
  effect on tumor volume: appreciable reduction in tumor volume
[4]; 2 h after single IV dose of 50 mg/kg docetaxel
  concentration at 2 h: 12900 ± 7900 ng/g
[4]; 12 h after single IV dose of 50 mg/kg docetaxel
  concentration at 12 h: 3600 ± 2100 ng/g
[5]; 5 mg/kg single IV bolus, total docetaxel in plasma
  Cmax: 600 ng/mL
[5]; [8]
  AUC(0-inf): 623 ng·h/mL
  clearance: 38.8 mL/min/kg
[5]; plasma, 5 mg/kg single IV bolus, tmax equals the first sampling time
  tmax: 5 min
[5]; plasma, iv, 5 mg/kg
  half-life: 4.4 h
[6]; 25 mg/m2, F
  AUC/D: 109
  Cmax/D: 23.8
  AUC: 2714 ng·h/mL
  Cl: 9213 mL/hr/m2
  Vz: 412186 mL/m2
[6]; 25 mg/m2, M
  AUC/D: 102
  Cmax/D: 14.6
  Cl: 9794 mL/hr/m2
  Vz: 253783 mL/m2
[6]; 50 mg/m2, F
  AUC/D: 72
  Cmax/D: 16.7
  AUC: 3599 ng·h/mL
  Cl: 13893 mL/hr/m2
  Vz: 788340 mL/m2
[6]; 50 mg/m2, M
  AUC/D: 76.5
  Cmax/D: 24.2
  Cl: 13073 mL/hr/m2
  Vz: 743682 mL/m2
[6]; female, monkey, 25 mg/m2, F
  half-life: 31 h
[6]; female, monkey, 50 mg/m2, F
  half-life: 39 h
[6]; female, monkey, plasma, 25 mg/m2, F
  Cmax: 596 ng/mL
[6]; female, monkey, plasma, 50 mg/m2, F
  Cmax: 835 ng/mL
[6]; male, monkey, 25 mg/m2, M
  half-life: 18 h
[6]; male, monkey, 50 mg/m2, M
  half-life: 39 h
[6]; male, monkey, plasma, 25 mg/m2, M
  Cmax: 364 ng/mL
[6]; male, monkey, plasma, 25 mg/m2, M, read-out: AUC
  AUC: 2550 ng·h/mL
[6]; male, monkey, plasma, 50 mg/m2, M
  Cmax: 1210 ng/mL
[6]; male, monkey, plasma, 50 mg/m2, M, read-out: AUC
  AUC: 3280 ng·h/mL

## CC(=O)O[C@@]12CO[C@@H]1C[C@H](O)[C@@]1(C)C(=O)[C@H](O)C3=C(C)[C@@H](OC(=O)[C@H](O)[C@@H](NC(=O)OC(C)(C)C)c4ccccc4)C[C@@](O)([C@@H](OC(=O)c4ccccc4)[C@H]21)C3(C)C [Conventional ^14C-Docetaxel, docetaxel]
[7]; 1 h after IV administration
  Radioactivity in Bone Marrow: 97 ± 4.2 nCi/g
  Radioactivity in Heart: 71 ± 2.5 nCi/g
  Radioactivity in Large Intestine: 54 ± 3.6 nCi/g
  Radioactivity in Liver: 78 ± 15 nCi/g
  Radioactivity in Lungs: 82 ± 9.6 nCi/g
  Radioactivity in Plasma: 4.9 ± 0.4 nCi/mL
  Radioactivity in Small Intestine: 517 ± 99 nCi/g
  Radioactivity in Spleen: 100 ± 9.4 nCi/g
[7]; 3 h after IV administration
  Radioactivity in Bone Marrow: 83 ± 1.0 nCi/g
  Radioactivity in Heart: 39 ± 1.5 nCi/g
  Radioactivity in Large Intestine: 166 ± 37 nCi/g
  Radioactivity in Liver: 49 ± 7.3 nCi/g
  Radioactivity in Lungs: 66 ± 0.7 nCi/g
  Radioactivity in Plasma: 1.9 ± 0.2 nCi/mL
  Radioactivity in Small Intestine: 122 ± 43 nCi/g
  Radioactivity in Spleen: 81 ± 7.5 nCi/g
[7]; 6 h after IV administration
  Radioactivity in Bone Marrow: 78 ± 1.9 nCi/g
  Radioactivity in Heart: 33 ± 1.3 nCi/g
  Radioactivity in Large Intestine: 185 ± 82 nCi/g
  Radioactivity in Liver: 49 ± 11 nCi/g
  Radioactivity in Lungs: 993 ± 1605 nCi/g
  Radioactivity in Plasma: 1.6 ± 0.5 nCi/mL
  Radioactivity in Small Intestine: 62 ± 5.2 nCi/g
  Radioactivity in Spleen: 82 ± 4.6 nCi/g
[7]; 12 h after IV administration
  Radioactivity in Bone Marrow: 62 ± 9.4 nCi/g
  Radioactivity in Heart: 28 ± 1.7 nCi/g
  Radioactivity in Large Intestine: 83 ± 18 nCi/g
  Radioactivity in Liver: 55 ± 7.4 nCi/g
  Radioactivity in Lungs: 1438 ± 1218 nCi/g
  Radioactivity in Plasma: 0.8 ± 0.2 nCi/mL
  Radioactivity in Small Intestine: 41 ± 4.9 nCi/g
  Radioactivity in Spleen: 77 ± 11 nCi/g
[7]; 24 h after IV administration
  Radioactivity in Bone Marrow: 41 ± 6.8 nCi/g
  Radioactivity in Heart: 24 ± 2.6 nCi/g
  Radioactivity in Large Intestine: 48 ± 34 nCi/g
  Radioactivity in Liver: 43 ± 4.0 nCi/g
  Radioactivity in Lungs: 962 ± 99 nCi/g
  Radioactivity in Plasma: 0.6 ± 0.1 nCi/mL
  Radioactivity in Small Intestine: 47 ± 19 nCi/g
  Radioactivity in Spleen: 85 ± 8.6 nCi/g
